One assay deals with T1, IL-17A/F (Homo sapiens, UniProt Q16552+Q96PD4).
T1 construct: purchased R&D Systems
T1 sequence (Q16552 24-155): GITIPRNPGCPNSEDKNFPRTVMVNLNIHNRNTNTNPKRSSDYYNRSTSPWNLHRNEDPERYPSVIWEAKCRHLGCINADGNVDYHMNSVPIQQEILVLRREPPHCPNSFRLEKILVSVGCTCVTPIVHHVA
T1 sequence (Q96PD4 31-163): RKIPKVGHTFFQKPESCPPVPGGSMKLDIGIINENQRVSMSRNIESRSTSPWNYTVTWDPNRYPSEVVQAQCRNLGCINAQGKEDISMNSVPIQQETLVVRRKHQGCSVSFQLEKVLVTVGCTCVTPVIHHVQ
In words: IL-17A/F HEK-Blue cell assay (SEAP reporter). Type of assay: cell-based. Conditions: HEK-Blue IL-17A reporter cells, IL17A/F 5 ng/mL, 20 hours, SEAP read at A630; read-out: HEK-Blue IL17AF (IC50 for IL-17A/F inhibition).

For the next assay, the target named is T2, IL-17A/A (Homo sapiens, UniProt Q16552).
T2 construct: purchased Genscript Z03228
T2 sequence (Q16552 24-155): T1 sequence (Q16552 24-155)
Briefly: IL-17A/A HEK-Blue cell assay (SEAP reporter). Type of assay: cell-based. Conditions: HEK-Blue IL-17A reporter cells, IL17A/A 5 ng/mL, 20 hours, SEAP read at A630; read-out: HEK-Blue IL17AA (IC50 for IL-17A/A inhibition).

Turning to `CCn1ncnc1C(=O)N[C@H](c1cn2nc(C[C@H]3C[C@H](C)CNC3=O)c(C3CCOCC3)nc2n1)C1CCC(F)(F)CC1` [Compound 387], the IC50 on IL-17A/F is > 1000 nM; at IL-17A/A it was 100 to 1000 nM.

As for `CCn1ncnc1C(=O)N[C@H](c1cn2nc(C[C@@H]3C[C@H](C)CNC3=O)c(C3CCOCC3)nc2n1)C1CCC(F)(F)CC1` [Compound 388], the IC50 was > 1000 nM at IL-17A/F and < 100 nM on IL-17A/A.

For the compound `CCn1nccc1C(=O)N[C@H](c1cn2nc(C[C@H]3C[C@@H](C)CNC3=O)c(C(C)C)nc2n1)C1CCC(F)(F)CC1` [Compound 389], the IC50 on IL-17A/F was > 1000 nM; on IL-17A/A, 100 to 1000 nM.

As for `CCn1nccc1C(=O)N[C@H](c1cn2nc(C[C@@H]3C[C@@H](C)CNC3=O)c(C(C)C)nc2n1)C1CCC(F)(F)CC1` [Compound 390], the IC50 was 100 to 1000 nM on IL-17A/F and < 100 nM at IL-17A/A.

Take `CCn1nccc1C(=O)N[C@H](c1cn2nc(C[C@H]3C[C@H](C)CNC3=O)c(C(C)C)nc2n1)C1CCC(F)(F)CC1` [Compound 391]: the IC50 at IL-17A/F is > 1000 nM; at IL-17A/A, < 100 nM.

Consider `CCn1nccc1C(=O)N[C@H](c1cn2nc(C[C@@H]3C[C@H](C)CNC3=O)c(C(C)C)nc2n1)C1CCC(F)(F)CC1` [Compound 392], for which the figures for the IC50 on IL-17A/F and on IL-17A/A were > 1000 nM and < 100 nM, respectively.

Take `CCc1nonc1C(=O)N[C@H](c1cn2nc(C[C@H]3C[C@@H](C)CNC3=O)c(C3CCOCC3)nc2n1)C1CCC(F)(F)CC1` [Compound 393]: the IC50 at IL-17A/F is > 1000 nM; at IL-17A/A it was 100 to 1000 nM.

On to `CCc1nonc1C(=O)N[C@H](c1cn2nc(C[C@@H]3C[C@@H](C)CNC3=O)c(C3CCOCC3)nc2n1)C1CCC(F)(F)CC1` [Compound 394], for which the values for the IC50 on IL-17A/F and on IL-17A/A were > 1000 nM and < 100 nM, respectively.

Take `CCc1nonc1C(=O)N[C@H](c1cn2nc(C[C@H]3C[C@H](C)CNC3=O)c(C3CCOCC3)nc2n1)C1CCC(F)(F)CC1` [Compound 395]: the IC50 at IL-17A/F was > 1000 nM; on IL-17A/A, < 100 nM.

Regarding `CCc1nonc1C(=O)N[C@H](c1cn2nc(C[C@@H]3C[C@H](C)CNC3=O)c(C3CCOCC3)nc2n1)C1CCC(F)(F)CC1` [Compound 396], the values for the IC50 at IL-17A/F and on IL-17A/A were > 1000 nM and < 100 nM, respectively.

`Cc1nonc1C(=O)N[C@H](c1cn2nc(C[C@@H]3C[C@@H](C)CNC3=O)c(C3CCOCC3)nc2n1)C1CCC(F)(F)CC1` [Compound 397]: the results for the IC50 on IL-17A/F and on IL-17A/A were > 1000 nM and < 100 nM, respectively.

On to `Cc1nonc1C(=O)N[C@H](c1cn2nc(C[C@H]3C[C@H](C)CNC3=O)c(C3CCOCC3)nc2n1)C1CCC(F)(F)CC1` [Compound 398], for which the IC50 at IL-17A/F was > 1000 nM; on IL-17A/A it was 100 to 1000 nM.

Regarding `Cc1nonc1C(=O)N[C@H](c1cn2nc(C[C@@H]3C[C@H](C)CNC3=O)c(C3CCOCC3)nc2n1)C1CCC(F)(F)CC1` [Compound 399], the IC50 is > 1000 nM on IL-17A/F and < 100 nM on IL-17A/A.

Turning to `Cn1nccc1C(=O)N[C@H](c1cn2nc(C[C@H]3C[C@@H](C(F)(F)F)CNC3=O)c(C3CCOCC3)nc2n1)C1CCCCC1` [Compound 405], the IC50 at IL-17A/F is 100 to 1000 nM; on IL-17A/A it was < 100 nM.

As for `CCn1nccc1C(=O)N[C@H](c1cn2nc(C[C@H]3C[C@@H](C(F)(F)F)CNC3=O)c(CN3CCOCC3)nc2n1)C(C1CC1)C1CC1` [Compound 406, N—((S)-2,2-dicyclopropyl-1-(3-(morpholinomethyl)-2-(((3R,5R)-2-oxo-5-(trifluoromethyl)piperidin-3-yl)methyl)imidazo[1,2-b][1,2,4]triazin-6-yl)ethyl)-1-ethyl-1H-pyrazole-5-carboxamide], the IC50 was 100 to 1000 nM at IL-17A/F and < 100 nM at IL-17A/A.

`Cc1nonc1C(=O)N[C@H](c1cn2nc(C[C@H]3C[C@@H](C(F)(F)F)CNC3=O)c(CN3CCOCC3)nc2n1)C1CCC(F)(F)CC1` [Compound 407]: the IC50 is > 1000 nM on IL-17A/F and 100 to 1000 nM on IL-17A/A.

On to `CCn1nccc1C(=O)N[C@H](c1cn2nc(C[C@H]3C[C@@H](C(F)(F)F)CNC3=O)c(CN3CCOCC3C)nc2n1)[C@H]1CC[C@H](C)CC1` (stereo partly drawn) [Compound 408, 1-ethyl-N-((1S)-((1r,4S)-4-methylcyclohexyl)(3-((3-methylmorpholino)methyl)-2-(((3R,5R)-2-oxo-5-(trifluoromethyl)piperidin-3-yl)methyl)imidazo[1,2-b][1,2,4]triazin-6-yl)methyl)-1H-pyrazole-5-carboxamide], for which the IC50 at IL-17A/F and at IL-17A/A was < 100 nM in each case.

As for `CCn1ncnc1C(=O)N[C@H](c1cn2nc(C[C@H]3C[C@@H](C(F)(F)F)CNC3=O)c(C3CCOCC3)nc2n1)C1CCCCC1` [Compound 409], the IC50 at IL-17A/F is > 1000 nM; at IL-17A/A, < 100 nM.

Turning to `CCn1ncnc1C(=O)N[C@H](c1cn2nc(C[C@H]3C[C@@H](C(F)(F)F)CNC3=O)c(C3CCOCC3)nc2n1)C1CCCCCC1` [Compound 410], the IC50 is 100 to 1000 nM at IL-17A/F and < 100 nM on IL-17A/A.

As to `Cc1nonc1C(=O)N[C@H](c1cn2nc(C[C@H]3C[C@@H](C(F)(F)F)CNC3=O)c(N3CCN(C)C4(CC4)C3)nc2n1)C1CCC(F)(F)CC1` [Compound 411, N—((S)-(4,4-difluorocyclohexyl)(3-(4-methyl-4,7-diazaspiro[2.5]octan-7-yl)-2-(((3R,5R)-2-oxo-5-(trifluoromethyl)piperidin-3-yl)methyl)imidazo[1,2-b][1,2,4]triazin-6-yl)methyl)-4-methyl-1,2,5-oxadiazole-3-carboxamide], the IC50 on IL-17A/F is > 1000 nM; on IL-17A/A it was < 100 nM.

`CCn1nccc1C(=O)N[C@H](c1cn2nc(C[C@H]3C[C@@H](C(F)(F)F)CNC3=O)c(CN3CCN(C)CC3)nc2n1)C1CCC(F)(F)CC1` [Compound 412, N—((S)-(4,4-difluorocyclohexyl)(3-((4-methylpiperazin-1-yl)methyl)-2-(((3R,5R)-2-oxo-5-(trifluoromethyl)piperidin-3-yl)methyl)imidazo[1,2-b][1,2,4]triazin-6-yl)methyl)-1-ethyl-1H-pyrazole-5-carboxamide]: the IC50 at IL-17A/F is > 1000 nM; at IL-17A/A it was 100 to 1000 nM.

For `CCn1nccc1C(=O)N[C@H](c1cn2nc(C[C@H]3C[C@@H](C(F)(F)F)CNC3=O)c(C3CCCN3C)nc2n1)C1CCC(F)(F)CC1` (stereo partly shown) [Compound 413], the values for the IC50 at IL-17A/F and on IL-17A/A were > 1000 nM and 100 to 1000 nM, respectively.

Regarding `CC(C)(C)n1nccc1C(=O)N[C@H](c1cn2nc(C[C@H]3C[C@@H](C(F)(F)F)CNC3=O)c(C3CCOCC3)nc2n1)C1CCC(F)(F)CC1` [Compound 414, 1-(tert-butyl)-N—((S)-(4,4-difluorocyclohexyl)(2-(((3R,5R)-2-oxo-5-(trifluoromethyl)piperidin-3-yl)methyl)-3-(tetrahydro-2H-pyran-4-yl)imidazo[1,2-b][1,2,4]triazin-6-yl)methyl)-1H-pyrazole-5-carboxamide], the IC50 at IL-17A/F was > 1000 nM; on IL-17A/A it was < 100 nM.

As to `CCn1cnnc1C(=O)N[C@H](c1cn2nc(C[C@H]3C[C@@H](C(F)(F)F)CNC3=O)c(C3CCOCC3)nc2n1)C1CCC(F)(F)CC1` [Compound 415], the IC50 was > 1000 nM at IL-17A/F and 100 to 1000 nM on IL-17A/A.

With `CCn1nccc1C(=O)N[C@H](c1cn2nc(C[C@H]3C[C@@H](C(F)(F)F)CNC3=O)c(N3CCOC(COC)C3)nc2n1)C1CCC(F)(F)CC1` (stereo partly drawn) [Compound 416, N-((1S)-(4,4-difluorocyclohexyl)(3-(2-(methoxymethyl)morpholino)-2-(((3R,5R)-2-oxo-5-(trifluoromethyl)piperidin-3-yl)methyl)imidazo[1,2-b][1,2,4]triazin-6-yl)methyl)-1-ethyl-1H-pyrazole-5-carboxamide], the IC50 at IL-17A/F is 100 to 1000 nM; on IL-17A/A, < 100 nM.

`CCn1nccc1C(=O)N[C@H](c1cn2nc(C[C@H]3C[C@@H](C(F)(F)F)CNC3=O)c(OC(C)C)nc2n1)C1CCC(F)(F)CC1` [Compound 417, N—((S)-(4,4-difluorocyclohexyl)(3-isopropoxy-2-(((3R,5R)-2-oxo-5-(trifluoromethyl)piperidin-3-yl)methyl)imidazo[1,2-b][1,2,4]triazin-6-yl)methyl)-1-ethyl-1H-pyrazole-5-carboxamide]: the IC50 on IL-17A/F was > 1000 nM; at IL-17A/A, < 100 nM.

As for `CCn1ccc(C(=O)N[C@H](c2cn3nc(C[C@H]4C[C@@H](C(F)(F)F)CNC4=O)c(C4CCOCC4)nc3n2)C2CCC(F)(F)CC2)n1` [Compound 418, N—((S)-(4,4-difluorocyclohexyl)(2-(((3R,5R)-2-oxo-5-(trifluoromethyl)piperidin-3-yl)methyl)-3-(tetrahydro-2H-pyran-4-yl)imidazo[1,2-b][1,2,4]triazin-6-yl)methyl)-1-ethyl-1H-pyrazole-3-carboxamide], the IC50 on IL-17A/F is > 1000 nM; on IL-17A/A, < 100 nM.

For `O=C(N[C@H](c1cn2nc(C[C@H]3C[C@@H](C(F)(F)F)CNC3=O)c(C3CCOCC3)nc2n1)C1CCC(F)(F)CC1)c1ccnn1C1CC1` [Compound 419], the IC50 at IL-17A/F is 100 to 1000 nM; on IL-17A/A, < 100 nM.

For `CCn1nccc1C(=O)N[C@H](c1cn2nc(C[C@H]3C[C@@H](C(F)(F)F)CNC3=O)c(N3C[C@H](C)O[C@@H](C)C3)nc2n1)C1CCC(F)(F)CC1` [Compound 420, N—((S)-(4,4-difluorocyclohexyl)(3-((2S,6S)-2,6-dimethylmorpholino)-2-(((3R,5R)-2-oxo-5-(trifluoromethyl)piperidin-3-yl)methyl)imidazo[1,2-b][1,2,4]triazin-6-yl)methyl)-1-ethyl-1H-pyrazole-5-carboxamide], the values for the IC50 at IL-17A/F and on IL-17A/A were 100 to 1000 nM and < 100 nM, respectively.
